Data taken from ChEMBL document CHEMBL5321235, “Design, synthesis, and SAR study of novel flavone 1,2,4-oxadiazole derivatives with anti-inflammatory activities for the treatment of Parkinson's disease” (Eur J Med Chem, 2023).
One block for each compound: values may come before it. Activity calls are given as the source filed them. The calls are words filed in the database; no cut-off is given here.

Columns and labels:
BV-2 [1] = assay: Antiinflammatory activity in LPS-induced mouse BV-2 cells assessed as reduction in IL-6 mRNA expression at 5 to 10 uM pretreated for 18 hrs followed by LPS-stimulation and measured after 6 hrs by qRT-PCR analysis; type: functional, cell-based; conditions: dose 5-10 µM, time 24.0 hrs
Microglia [2] = assay: (§1) Neuroprotective activity against MPTP-induced apoptosis in mouse microglia assessed as increase in Bcl2 expression in brain tissue at 15 mg/kg, ip administered with compound once daily for 2 weeks followed by MPTP addition on day 8 and measured after 2 weeks of compound addition by Western blot analysis; type: functional, organism-based
BV-2 [3] = assay: Antiinflammatory activity in LPS-induced mouse BV-2 cells assessed as reduction in TNF-alpha mRNA expression at 5 to 10 uM pretreated for 18 hrs followed by LPS-stimulation and measured after 6 hrs by qRT-PCR analysis; type: functional, cell-based; conditions: dose 5-10 µM, time 24.0 hrs
BV-2 [4] = assay: Antiinflammatory activity in LPS-induced mouse BV-2 cells assessed as increase in CD206 mRNA expression at 5 to 10 uM pretreated for 18 hrs followed by LPS-stimulation and measured after 6 hrs by qRT-PCR analysis; type: functional, cell-based; conditions: dose 5-10 µM, time 24.0 hrs
BV-2 [5] = assay: Induction of apoptosis in LPS-induced mouse BV-2 cells assessed as increase in Bcl-2 mRNA expression at 5 to 10 uM pretreated for 18 hrs followed by LPS-stimulation and measured after 6 hrs by qRT-PCR analysis; type: functional, cell-based; conditions: dose 5-10 µM, time 24.0 hrs
BV-2 [6] = assay: Cytotoxicity against mouse BV-2 cells assessed as reduction in cell viability at 5 uM pretreated for 18 hrs followed by LPS-stimulation and measured after 6 hrs by MTT assay; type: toxicity, cell-based; conditions: bv-2, 24 h
BV-2 [7] = assay: Cytotoxicity against mouse BV-2 cells assessed as reduction in cell viability at 10 uM pretreated for 18 hrs followed by LPS-stimulation and measured after 6 hrs by MTT assay; type: toxicity, cell-based; conditions: bv-2, 24 h
BV-2 [8] = assay: Antiinflammatory activity in LPS-induced mouse BV-2 cells assessed as reduction in CD86 mRNA expression at 5 to 10 uM pretreated for 18 hrs followed by LPS-stimulation and measured after 6 hrs by qRT-PCR analysis; type: functional, cell-based; conditions: dose 5-10 µM, time 24.0 hrs
BV-2 [9] = assay: Antiinflammatory activity in LPS-induced mouse BV-2 cells assessed as reduction in IL-1beta mRNA expression at 5 to 10 uM pretreated for 18 hrs followed by LPS-stimulation and measured after 6 hrs by qRT-PCR analysis; type: functional, cell-based; conditions: dose 5-10 µM, time 24.0 hrs
Microglia [10] = assay: (§2) Neuroprotective activity against MPTP-induced apoptosis in mouse microglia assessed as reduction in TH expression in brain tissue at 15 mg/kg, ip administered with compound once daily for 2 weeks followed by MPTP addition on day 8 and measured after 2 weeks of compound addition; type: functional, organism-based
Mus musculus [11] = assay: Antiinflammatory activity in C57BL/6J mouse assessed as inhibition of MPTP-induced ERK phosphorylation at 15 mg/kg, ip administered with compound once daily for 2 weeks followed by MPTP addition on day 8 and measured after 2 weeks of compound addition Western blot analysis; type: functional, organism-based
Microglia [12] = assay: as §2, with “reduction in apoptotic cells in brain” for “reduction in TH expression in brain”, “compound addition by TUNEL staining based immunofluorescence analysis” for “compound addition”; type: functional, organism-based
BV-2 [13] = assay: Induction of apoptosis in mouse LPS-induced BV-2 cells assessed as increase in cleaved Caspase-3 expression at 5 to 10 uM pretreated for 18 hrs followed by LPS-stimulation and measured after 6 hrs by Western blot analysis; type: functional, cell-based; conditions: dose 5-10 µM, time 24.0 hrs
Mus musculus [14] = assay: Antiinflammatory activity in C57BL/6J mouse assessed as inhibition of MPTP-induced NF-kappaB phosphorylation at 15 mg/kg, ip administered with compound once daily for 2 weeks followed by MPTP addition on day 8 and measured after 2 weeks of compound addition Western blot analysis; type: functional, organism-based
Microglia [15] = assay: as §1, with “BAX” for “Bcl2”; type: functional, organism-based
BV-2 [16] = assay: Induction of apoptosis in LPS-induced mouse BV-2 cells assessed as increase in Caspase3 expression at 5 to 10 uM pretreated for 18 hrs followed by LPS-stimulation and measured after 6 hrs by Western blot analysis; type: functional, cell-based; conditions: dose 5-10 µM, time 24.0 hrs
BV-2 [17] = assay: Induction of apoptosis in LPS-induced mouse BV-2 cells assessed as increase in cleaved Caspase-3 expression at 5 to 10 uM pretreated for 18 hrs followed by LPS-stimulation and measured after 6 hrs by immunofluorescence analysis; type: functional, cell-based; conditions: dose 5-10 µM, time 24.0 hrs
BV-2 [18] = assay: Induction of apoptosis in LPS-induced mouse BV-2 cells assessed as increase in BAX expression at 5 to 10 uM pretreated for 18 hrs followed by LPS-stimulation and measured after 6 hrs by Western blot analysis; type: functional, cell-based; conditions: dose 5-10 µM, time 24.0 hrs
BV-2 [19] = assay: Induction of apoptosis in mouse LPS-induced BV-2 cells assessed as increase in Bcl-2 expression at 5 to 10 uM pretreated for 18 hrs followed by LPS-stimulation and measured after 6 hrs by Western blot analysis; type: functional, cell-based; conditions: dose 5-10 µM, time 24.0 hrs
BV-2 [20] = assay: Antiinflammatory activity in LPS-induced mouse BV-2 cells assessed as increase in Arg-1 mRNA expression at 5 to 10 uM pretreated for 18 hrs followed by LPS-stimulation and measured after 6 hrs by qRT-PCR analysis; type: functional, cell-based; conditions: dose 5-10 µM, time 24.0 hrs
BV-2 [21] = assay: Inhibition of LPS-induced ERK phosphorylation in mouse BV-2 cells at 5 to 10 uM pretreated for 12 hrs followed by LPS-stimulation and measured after 6 hrs by Western blot analysis; type: cell-based; conditions: dose 5-10 µM, time 18.0 hrs
BV-2 [22] = assay: Induction of apoptosis in LPS-induced mouse BV-2 cells assessed as increase in Caspase3 mRNA expression at 5 to 10 uM pretreated for 18 hrs followed by LPS-stimulation and measured after 6 hrs by qRT-PCR analysis; type: functional, cell-based; conditions: dose 5-10 µM, time 24.0 hrs
Mus musculus [23] = assay: Antiinflammatory activity in MPTP-induced C57BL/6J mouse assessed as increase in IL-10 expression at 15 mg/kg, ip administered with compound once daily for 2 weeks followed by MPTP addition on day 8 and measured after 2 weeks of compound addition Western blot analysis; type: functional, organism-based
BV-2 [24] = assay: Induction of apoptosis in LPS-induced mouse BV-2 cells assessed as increase in Bcl-2 expression at 5 to 10 uM pretreated for 18 hrs followed by LPS-stimulation and measured after 6 hrs by immunofluorescence analysis; type: functional, cell-based; conditions: dose 5-10 µM, time 24.0 hrs
Mus musculus [25] = assay: Antiinflammatory activity in C57BL/6J mouse assessed as inhibition of MPTP-induced p38 phosphorylation at 15 mg/kg, ip administered with compound once daily for 2 weeks followed by MPTP addition on day 8 and measured after 2 weeks of compound addition Western blot analysis; type: functional, organism-based
Microglia [26] = assay: as §1, with “Caspase3” for “Bcl2”; type: functional, organism-based
BV-2 [27] = assay: Antiinflammatory activity in LPS-induced mouse BV-2 cells assessed as increase in IL-10 mRNA expression at 5 to 10 uM pretreated for 18 hrs followed by LPS-stimulation and measured after 6 hrs by qRT-PCR analysis; type: functional, cell-based; conditions: dose 5-10 µM, time 24.0 hrs
Mus musculus [28] = assay: Anti-parkinson activity in MPTP-induced C57BL/6J mouse model at 15 to 35 mg/kg, ip administered with compound once daily for 2 weeks followed by MPTP addition on day 8 and measured after 2 weeks of compound addition by rotarod test; type: functional, organism-based; conditions: dose 15-35 mg/kg
BV-2 [29] = assay: Induction of apoptosis in LPS-induced mouse BV-2 cells assessed as increase in BAX mRNA expression at 5 to 10 uM pretreated for 18 hrs followed by LPS-stimulation and measured after 6 hrs by qRT-PCR analysis; type: functional, cell-based; conditions: dose 5-10 µM, time 24.0 hrs
BV-2 [30] = assay: Antiinflammatory activity in mouse BV-2 cells assessed as inhibition of LPS-induced NO production at 5 uM pretreated for 18 hrs followed by LPS-induction and measured after 6 hrs relative to control; type: functional; design: scale not given: the % may be the effect or the level left; conditions: time 24 hrs
BV-2 [31] = assay: Inhibition of NF-kappaB activation in LPS-stimulated mouse BV-2 cells assessed as increase in IkappaBalpha expression at 5 to 10 uM pretreated for 18 hrs followed by LPS-stimulation and measured after 6 hrs by Western blot analysis; type: cell-based; conditions: dose 5-10 µM, time 24.0 hrs
Mus musculus [32] = assay: Anti-parkinson activity in MPTP-induced C57BL/6J mouse model assessed as increase in locomotion at 15 to 35 mg/kg, ip administered with compound once daily for 2 weeks followed by MPTP addition on day 8 and measured after 2 weeks of compound addition by open field test; type: functional, organism-based; conditions: dose 15-35 mg/kg
[33] = target: MAP kinase p38 (Mus musculus) (UniProt P47811+O08911+Q9WUI1+Q9Z1B7); assay: Inhibition of LPS-induced p38 phosphorylation in mouse BV-2 cells at 5 to 10 uM pretreated for 12 hrs followed by LPS-stimulation and measured after 6 hrs by Western blot analysis; type: cell-based; conditions: dose 5-10 µM, time 18.0 hrs
BV-2 [34] = assay: Induction of apoptosis in LPS-induced mouse BV-2 cells assessed as increase in Caspase3 expression at 5 to 10 uM pretreated for 18 hrs followed by LPS-stimulation and measured after 6 hrs by immunofluorescence analysis; type: functional, cell-based; conditions: dose 5-10 µM, time 24.0 hrs
BV-2 [35] = assay: Inhibition of LPS-induced NF-kappaB nuclear translocation in mouse BV-2 cells at 5 to 10 uM pretreated for 18 hrs followed by LPS-stimulation and measured after 6 hrs by immunofluorescence analysis; type: cell-based; conditions: dose 5-10 µM, time 24.0 hrs
[36] = target: c-Jun N-terminal kinase (Mus musculus) (UniProt Q91Y86+Q9WTU6+Q61831); assay: Inhibition of LPS-induced JNK phosphorylation in mouse BV-2 cells at 5 to 10 uM pretreated for 12 hrs followed by LPS-stimulation and measured after 6 hrs by Western blot analysis; type: cell-based; conditions: dose 5-10 µM, time 18.0 hrs
BV-2 [37] = assay: Inhibition of LPS-induced ROS production in mouse BV-2 cells at 5 uM pretreated for 18 hrs followed by LPS-stimulation and measured after 6 hrs by fluorescence microscopic analysis; type: functional, cell-based; conditions: time 24.0 hrs
BV-2 [38] = assay: Induction of apoptosis in LPS-induced mouse BV-2 cells assessed as increase in BAX expression at 5 to 10 uM pretreated for 18 hrs followed by LPS-stimulation and measured after 6 hrs by immunofluorescence analysis; type: functional, cell-based; conditions: dose 5-10 µM, time 24.0 hrs

Sequence of c-Jun N-terminal kinase (Mus musculus) (Q61831 whole entry, looked up): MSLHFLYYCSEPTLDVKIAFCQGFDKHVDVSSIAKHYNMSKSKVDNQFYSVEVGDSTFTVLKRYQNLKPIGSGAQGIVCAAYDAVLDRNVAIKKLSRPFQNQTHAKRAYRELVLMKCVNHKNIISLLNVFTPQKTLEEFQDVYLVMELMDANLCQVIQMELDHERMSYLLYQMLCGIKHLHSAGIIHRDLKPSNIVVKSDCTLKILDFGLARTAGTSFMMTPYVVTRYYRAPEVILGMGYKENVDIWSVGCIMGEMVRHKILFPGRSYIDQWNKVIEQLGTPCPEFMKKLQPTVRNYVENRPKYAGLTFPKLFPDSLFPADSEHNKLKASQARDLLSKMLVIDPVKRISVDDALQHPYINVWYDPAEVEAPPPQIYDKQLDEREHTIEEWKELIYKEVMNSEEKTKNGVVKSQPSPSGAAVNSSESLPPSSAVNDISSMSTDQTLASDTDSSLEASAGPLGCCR
Sequence of c-Jun N-terminal kinase (Mus musculus) (Q91Y86 whole entry, looked up): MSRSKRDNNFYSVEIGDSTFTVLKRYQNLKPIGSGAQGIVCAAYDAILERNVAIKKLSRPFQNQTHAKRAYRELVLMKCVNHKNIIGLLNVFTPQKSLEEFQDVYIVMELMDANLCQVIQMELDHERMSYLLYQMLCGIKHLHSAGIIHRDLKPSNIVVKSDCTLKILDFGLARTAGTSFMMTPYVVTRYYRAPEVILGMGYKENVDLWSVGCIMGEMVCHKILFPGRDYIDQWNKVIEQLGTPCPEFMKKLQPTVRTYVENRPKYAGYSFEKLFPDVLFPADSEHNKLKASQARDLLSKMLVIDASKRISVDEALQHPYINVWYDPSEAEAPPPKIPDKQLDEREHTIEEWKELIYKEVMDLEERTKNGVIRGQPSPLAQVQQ
Sequence of c-Jun N-terminal kinase (Mus musculus) (Q9WTU6 whole entry, looked up): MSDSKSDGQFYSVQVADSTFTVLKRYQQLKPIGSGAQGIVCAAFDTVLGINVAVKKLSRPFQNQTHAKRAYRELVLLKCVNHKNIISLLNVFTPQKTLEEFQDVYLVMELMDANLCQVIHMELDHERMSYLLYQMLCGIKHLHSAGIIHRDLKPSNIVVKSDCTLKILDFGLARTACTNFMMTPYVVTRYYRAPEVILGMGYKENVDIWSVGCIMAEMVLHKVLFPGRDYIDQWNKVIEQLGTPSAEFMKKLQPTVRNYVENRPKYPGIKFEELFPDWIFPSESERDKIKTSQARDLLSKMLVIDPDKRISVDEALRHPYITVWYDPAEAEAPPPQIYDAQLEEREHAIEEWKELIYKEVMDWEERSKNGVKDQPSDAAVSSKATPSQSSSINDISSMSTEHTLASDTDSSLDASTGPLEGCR

inhibition [33]: Active | inhibition [36]: Active
Compound: Cc1cccc(-c2noc(-c3cccc4c(=O)c(C)c(-c5ccccc5)oc34)n2)c1
Activity (BV-2 [1]): Active | Activity (Microglia [2]): Active | Activity (BV-2 [3]): Active | Activity (BV-2 [4]): Active | Activity (BV-2 [5]): Active | Activity (BV-2 [6]): Non-Toxic | Activity (BV-2 [7]): Non-Toxic | Activity (BV-2 [8]): Active | Activity (BV-2 [9]): Active | Activity (Microglia [10]): Active | Activity (Mus musculus [11]): Active | Activity (Microglia [12]): Active | Activity (BV-2 [13]): Active | Activity (Mus musculus [14]): Active | Activity (Microglia [15]): Active | Activity (BV-2 [16]): Active | Activity (BV-2 [17]): Active | Activity (BV-2 [18]): Active | Activity (BV-2 [19]): Active | Activity (BV-2 [20]): Active | inhibition (BV-2 [21]): Active | Activity (BV-2 [22]): Active | Activity (Mus musculus [23]): Active | Activity (BV-2 [24]): Active | Activity (Mus musculus [25]): Active | Activity (Microglia [26]): Active | Activity (BV-2 [27]): Active | Activity (Mus musculus [28]): Active | Activity (BV-2 [29]): Active | Activity (BV-2 [30]): 64.2% | inhibition (BV-2 [31]): Active | Activity (Mus musculus [32]): Active | Activity (BV-2 [34]): Active | inhibition (BV-2 [35]): Active | inhibition (BV-2 [37]): Active | Activity (BV-2 [38]): Active

Compound: Cc1ccc(-c2noc(-c3ccc(F)c(F)c3)n2)cn1
inhibition (BV-2 [37]): Active

Compound: Cc1c(-c2ccccc2)oc2c(-c3nc(-c4ccc(F)cc4)no3)cccc2c1=O
Activity (BV-2 [6]): Non-Toxic | Activity (BV-2 [7]): Non-Toxic | Activity (BV-2 [30]): 41.6% | inhibition (BV-2 [37]): Active

Compound: Cc1ccc(-c2noc(-c3cccc4c(=O)c(C)c(-c5ccccc5)oc34)n2)cc1
Activity (BV-2 [30]): 22.4% | inhibition (BV-2 [37]): Active

Compound: CCc1ccc(-c2noc(-c3cccc4c(=O)c(C)c(-c5ccccc5)oc34)n2)cc1
Activity (BV-2 [30]): 41.6% | inhibition (BV-2 [37]): Active

Compound: COc1cccc(-c2noc(-c3cccc4c(=O)c(C)c(-c5ccccc5)oc34)n2)c1
Activity (BV-2 [30]): 22.4% | inhibition (BV-2 [37]): inactive

Compound: Cc1c(-c2ccccc2)oc2c(-c3nc(-c4cccc(F)c4)no3)cccc2c1=O
Activity (BV-2 [30]): 22.4% | inhibition (BV-2 [37]): Active

Compound: Cc1c(-c2ccccc2)oc2c(-c3nc(-c4ccccc4F)no3)cccc2c1=O
Activity (BV-2 [30]): 41.6% | inhibition (BV-2 [37]): Active

Compound: Cc1ccccc1-c1noc(-c2cccc3c(=O)c(C)c(-c4ccccc4)oc23)n1
Activity (BV-2 [30]): 22.4% | inhibition (BV-2 [37]): Active
